Test results: patent US8501713B2, “Drug combinations for the treatment of duchenne muscular dystrophy” (Summit Corporation PLC, priority 2007, dated 2013)

These compounds were tested on Utrophin A promoter linked to a luciferase reporter gene (assay: Luciferase reporter assay (murine H2K cells)). Details: Mus musculus, H2K mdx.
Assay type: cell-based
Outline: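 Compound at 10 μM final was applied for 48 hrs to plated H2K mdx myoblasts (33° C, 10% CO2, interferon-containing medium) bearing a luciferase gene under the utrophin A promoter. Luminescence from lysed cells served as read-out.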
With Nc1ccc2sc(-c3ccccc3)nc2c1 [Example 251, 2-phenylbenzo[d]thiazol-5-amine] the activity at 10 µM was 301 to 400%.

Same assay, conditions: Mus musculus, H2K mdx, luciferase level relative to control; H2K/mdx/Utro A reporter cells; compound 10 μM final concentration; read-out: Activity
Work on Cc1cc2nc(-c3ccc(Cl)cc3)oc2cc1C [Example 222, 2-(4-chlorophenyl)-5,6-dimethylbenzo[d]oxazole] yielded an activity at 10 µM of over 401%. Compound O=[N+]([O-])c1ccc2nc(-c3ccccn3)oc2c1 [Example 223, 6-nitro-2-(pyridin-2-yl)benzo[d]oxazole] has an activity at 10 µM of under 200%. Compound Cc1cc2nc(-c3ccc(Cl)cc3Cl)oc2cc1C [Example 224, 2-(2,4-dichlorophenyl)-5,6-dimethylbenzo[d]oxazole] has an activity at 10 µM of over 401%. Work on CCCC(=O)Nc1ccc2oc(-c3cccc(C(F)(F)F)c3)nc2c1 [Example 225, N-(2-(3-(trifluoromethyl)phenyl)benzo[d]oxazol-5-yl)butyramide] yielded an activity at 10 µM of under 200%. For Cc1ccccc1-c1nc2cc(NC(=O)C(C)C)ccc2o1 [Example 226, N-(2-o-tolylbenzo[d]oxazol-5-yl)isobutyramide], the activity at 10 µM was over 401%. CCCC(=O)Nc1ccc2oc(Cc3ccccc3)nc2c1 [Example 227, N-(2-benzylbenzo[d]oxazol-5-yl)butyramide] gave an activity at 10 µM of under 200%. CC(C)C(=O)Nc1ccc2oc(Cc3ccccc3)nc2c1 [Example 228, N-(2-benzylbenzo[d]oxazol-5-yl)isobutyramide] gave an activity at 10 µM of under 200%. CCCC(=O)Nc1ccc2oc(-c3ccccc3Cl)nc2c1 [Example 229, N-(2-(2-chlorophenyl)benzo[d]oxazol-5-yl)butyramide] showed an activity at 10 µM of 301 to 400%. In the case of CC(C)C(=O)Nc1ccc2oc(-c3ccccc3Cl)nc2c1 [Example 230, N-(2-(2-chlorophenyl)benzo[d]oxazol-5-yl)isobutyramide], the activity at 10 µM is reported as over 401%. CC(C)C(=O)Nc1ccc2oc(-c3cccc(Cl)c3)nc2c1 [Example 231, N-(2-(3-chlorophenyl)benzo[d]oxazol-5-yl)isobutyramide] was tested, and the activity at 10 µM was over 401%. In the case of Nc1ccc2oc(-c3cccc(F)c3)nc2c1 [Example 232, 2-(3-fluorophenyl)benzo[d]oxazol-5-amine], the activity at 10 µM is reported as over 401%. Cc1ccc(-c2nc3cc(NC(=O)CCC(F)(F)F)ccc3o2)cc1 [Example 233, 4,4,4-trifluoro-N-(2-p-tolylbenzo[d]oxazol-5-yl)butanamide] gave an activity at 10 µM of under 200%. Compound Cc1ccc(-c2nc3c(N)cccc3o2)cc1 [Example 234, 2-p-tolylbenzo[d]oxazol-4-amine] has an activity at 10 µM of 301 to 400%. For CCCC(=O)Nc1cccc2oc(-c3ccc(C)cc3)nc12 [Example 235, N-(2-p-tolylbenzo[d]oxazol-4-yl)butyramide], the activity at 10 µM was under 200%. With Cc1ccc(-c2nc3c(NC(=O)C(C)C)cccc3o2)cc1 [Example 236, N-(2-p-tolylbenzo[d]oxazol-4-yl)isobutyramide] the activity at 10 µM was under 200%. Cc1ccc(-c2nc3ccc(N)cc3o2)cc1 [Example 237, 2-p-tolylbenzo[d]oxazol-6-amine] was tested, and the activity at 10 µM was over 401%. Compound Cc1cc(NC(=O)c2ccc(F)cc2F)c(OC(=O)c2ccc(F)cc2F)cc1C [Example 238, 2-(2,4-difluorobenzamido)-4,5-dimethylphenyl 2,4-difluorobenzoate] has an activity at 10 µM of under 200%. CCCC(=O)Nc1ccc2oc(-c3cccc(Cl)c3)nc2c1 [Example 239, N-(2-(3-chlorophenyl)benzo[d]oxazol-5-yl)butyramide] gave an activity at 10 µM of under 200%. O=C(Nc1ccccc1)Nc1ccc2oc(-c3ccccc3)nc2c1 [Example 240, 1-phenyl-3-(2-phenylbenzo[d]oxazol-5-yl)urea] was tested, and the activity at 10 µM was 301 to 400%. CC(C)NC(=O)Nc1ccc2oc(-c3ccccc3)nc2c1 [Example 241, 1-isopropyl-3-(2-phenylbenzo[d]oxazol-5-yl)urea] gave an activity at 10 µM of under 200%. Work on CCCC(=O)Nc1ccc2oc(-c3ccccc3F)nc2c1 [Example 242, N-(2-(2-fluorophenyl)benzo[d]oxazol-5-yl)butyramide] yielded an activity at 10 µM of under 200%. CC(C)C(=O)Nc1ccc2oc(-c3ccccc3F)nc2c1 [Example 243, N-(2-(2-fluorophenyl)benzo[d]oxazol-5-yl)isobutyramide] gave an activity at 10 µM of 301 to 400%. In the case of CCCC(=O)Nc1ccc2oc(-c3cccc(F)c3)nc2c1 [Example 244, N-(2-(3-fluorophenyl)benzo[d]oxazol-5-yl)butyramide], the activity at 10 µM is reported as over 401%. Work on CC(C)C(=O)Nc1ccc2oc(-c3cccc(F)c3)nc2c1 [Example 245, N-(2-(3-fluorophenyl)benzo[d]oxazol-5-yl)isobutyramide] yielded an activity at 10 µM of 301 to 400%. With CC(C)(C)OC(=O)NCCC(=O)Nc1ccc2oc(-c3ccccc3)nc2c1 [Example 246, tert-butyl 3-oxo-3-(2-phenylbenzo[d]oxazol-5-ylamino)propylcarbamate] the activity at 10 µM was under 200%. Compound Cc1cc2nc(-c3ccc(F)cc3F)oc2cc1C [Example 247, 2-(2,4-difluorophenyl)-5,6-dimethylbenzo[d]oxazole] has an activity at 10 µM of 201 to 300%. CC(C)C(=O)Nc1ccc2oc(C3CCCCC3)nc2c1 [Example 248, N-(2-cyclohexylbenzo[d]oxazol-5-yl)isobutyramide] was tested, and the activity at 10 µM was over 401%. CCCC(=O)Nc1ccc2oc(C3CCCCC3)nc2c1 [Example 249, N-(2-cyclohexylbenzo[d]oxazol-5-yl)butyramide] showed an activity at 10 µM of under 200%. In the case of CCCCc1ccc(-c2nc3cc([N+](=O)[O-])ccc3o2)nc1 [Example 250, 2-(5-butylpyridin-2-yl)-5-nitrobenzo[d]oxazole], the activity at 10 µM is reported as under 200%. With CC(=O)Nc1ccc(-c2ccc3oc(-c4ccc(Cl)cc4)nc3c2)cc1 [Example 252, N-(4-(2-(4-chlorophenyl)benzo[d]oxazol-5-yl)phenyl)acetamide] the activity at 10 µM was 301 to 400%. CCCS(=O)(=O)Nc1ccc2oc(-c3ccc(C)cc3)nc2c1 [Example 253, N-(2-p-tolylbenzo[d]oxazol-5-yl)propane-1-sulfonamide] was tested, and the activity at 10 µM was under 200%. Compound Cc1ccc(-c2nc3cc(NC(=O)CC(F)(F)F)ccc3o2)cc1 [Example 254, 3,3,3-trifluoro-N-(2-p-tolylbenzo[d]oxazol-5-yl)propanamide] has an activity at 10 µM of 201 to 300%. CC(C)C(=O)Nc1ccc2nc(-c3ccc(Cl)cc3)oc2c1 [Example 255, N-(2-(4-chlorophenyl)benzo[d]oxazol-6-yl)isobutyramide] was tested, and the activity at 10 µM was over 401%. CCCC(=O)Nc1ccc2nc(-c3ccc(Cl)cc3)oc2c1 [Example 256, N-(2-(4-chlorophenyl)benzo[d]oxazol-6-yl)butyramide] was tested, and the activity at 10 µM was 201 to 300%. CC(C)C(=O)Nc1ccc2oc(-c3ccc(Cl)cc3Cl)nc2c1 [Example 257, N-(2-(2,4-dichlorophenyl)benzo[d]oxazol-5-yl)isobutyramide] gave an activity at 10 µM of under 200%. Compound CC(C)C(=O)Nc1ccc2oc(-c3ccc(F)cc3)nc2c1 [Example 258, N-(2-(4-fluorophenyl)benzo[d]oxazol-5-yl)isobutyramide] has an activity at 10 µM of 301 to 400%. Cc1ccc(-c2nc3cc(NS(=O)(=O)C(C)C)ccc3o2)cc1 [Example 259, N-(2-p-tolylbenzo[d]oxazol-5-yl)propane-2-sulfonamide] gave an activity at 10 µM of under 200%. CCCS(=O)(=O)Nc1ccc2oc(-c3ccc(Cl)cc3)nc2c1 [Example 260, N-(2-(4-chlorophenyl)benzo[d]oxazol-5-yl)propane-1-sulfonamide] showed an activity at 10 µM of under 200%. Work on CC(C)S(=O)(=O)Nc1ccc2oc(-c3ccc(Cl)cc3)nc2c1 [Example 261, N-(2-(4-chlorophenyl)benzo[d]oxazol-5-yl)propane-2-sulfonamide] yielded an activity at 10 µM of under 200%. CCCCc1ccc(-c2nc3ccc([N+](=O)[O-])cc3o2)nc1 [Example 262, 2-(5-butylpyridin-2-yl)-6-nitrobenzo[d]oxazole] gave an activity at 10 µM of 201 to 300%. For CC(C)NC(=O)c1ccc2oc(-c3ccc(Cl)cc3)nc2c1 [Example 263, 2-(4-chlorophenyl)-N-isopropylbenzo[d]oxazole-5-carboxamide], the activity at 10 µM was 301 to 400%. NC(=O)c1ccc2oc(-c3ccc(Cl)cc3)nc2c1 [Example 264, 2-(4-chlorophenyl)benzo[d]oxazole-5-carboxamide] was tested, and the activity at 10 µM was over 401%. O=C(Nc1ccc2oc(-c3ccc(Cl)cc3)nc2c1)C1CC1 [Example 265, N-(2-(4-chlorophenyl)benzo[d]oxazol-5-yl)cyclopropanecarboxamide] gave an activity at 10 µM of over 401%. O=C(Nc1ccc2oc(-c3ccc(Cl)cc3)nc2c1)C1CCC1 [Example 266, N-(2-(4-chlorophenyl)benzo[d]oxazol-5-yl)cyclobutanecarboxamide] gave an activity at 10 µM of 301 to 400%. For CC(C)C(=O)Nc1ccc2sc(-c3ccccc3)nc2c1 [Example 267, N-(2-phenylbenzo[d]thiazol-5-yl)isobutyramide], the activity at 10 µM was over 401%. In the case of CC(C)C(=O)Nc1ccc2oc(-c3ccc(Cl)c(Cl)c3)nc2c1 [Example 268, N-(2-(3,4-dichlorophenyl)benzo[d]oxazol-5-yl)isobutyramide], the activity at 10 µM is reported as over 401%. CCS(=O)(=O)c1ccc(-c2ccc3oc(-c4ccc(Cl)cc4)nc3c2)cc1 [Example 269, 2-(4-chlorophenyl)-5-(4-(ethylsulfonyl)phenyl)benzo[d]oxazole] gave an activity at 10 µM of under 200%. With CC(C)C(=O)Nc1ccc2oc(-c3ccc(Cl)cn3)nc2c1 [Example 270, N-(2-(5-chloropyridin-2-yl)benzo[d]oxazol-5-yl)isobutyramide] the activity at 10 µM was over 401%. For CC(C)C(=O)Nc1ccc2oc(-c3cc(Cl)cc(Cl)c3)nc2c1 [Example 271, N-(2-(3,5-dichlorophenyl)benzo[d]oxazol-5-yl)isobutyramide], the activity at 10 µM was 201 to 300%. With C[C@H](N)C(=O)Nc1ccc2oc(-c3ccc(Cl)cc3)nc2c1 [Example 272, (S)-2-amino-N-(2-(4-chlorophenyl)benzo[d]oxazol-5-yl)propanamide] the activity at 10 µM was 301 to 400%. With CC(C)C(=O)Nc1ccc2oc(-c3cccc(Cl)c3Cl)nc2c1 [Example 273, N-(2-(2,3-dichlorophenyl)benzo[d]oxazol-5-yl)isobutyramide] the activity at 10 µM was over 401%. For CC(C)NC(=S)c1ccc2oc(-c3ccc(Cl)cc3)nc2c1 [Example 274, 2-(4-chlorophenyl)-N-isopropylbenzo[d]oxazole-5-carbothioamide], the activity at 10 µM was under 200%.
